In patent US20220002293A1, “8-CYCLOPENTYL-7-OXO-2-(4-PIPERAZIN-1-YL-PHENYLAMINO)-7, 8-DIHYDRO-PYRIDO [2,3-D]PYRIMIDINE-6-CARBONITRILE AND USES THEREOF IN TREATING PROLIFERATIVE DISORDERS” (ONCONOVA THERAPEUTICS, INC., priority 2018, published 2022):
Like-named read-outs stand apart in the source and are kept apart here.

What was measured:
[1] = test system: GRANTA-519 (human B Cell lymphoma); experiment: Cytotoxicity assay (CellTiter-Glo), GRANTA-519; conditions: for IC50: read-out: Absolute IC50
Description: (§3) The homogeneous assay procedure involves adding a single reagent (CellTiter-Glo® Reagent) directly to cells cultured in serum-supplemented medium. The homogeneous “add-mix-measure” format results in cell lysis and generation of a luminescent signal proportional to the amount of ATP present. The amount of ATP is directly proportional to the number of cells present in culture. The assay generates a luminescent signal, produced by the luciferase reaction.
(§4) Determination of the Half Maximal Inhibition Concentration IC50: • 1. Harvest cells during the logarithmic growth period and count cell number using Count-star. • 2. […] Add 90 μL cell suspensions to two 96-well plates (plates A and B) with the final cell density of 4×10^3 cells/well. (cell concentration is adjusted according to the data base or density optimization assay.)
(§5) Next day: For the Plates of T0 Reading: • 1) Add 10 μL culture medium to each well of plate A for T0 reading. • 2) Equilibrate the plate and its content at RT for approximately 30 min. • 3) Add 50 μL CellTiter-Glo (CTG) reagent to each well. • 4) Mix content for 5 min on an orbital shaker to induce cell lysis. • 5) Allow the plate to incubate at RT for 20 min to stabilize luminescent signal. Note: Uneven luminescent signal within standard plates can be caused by temperature gradients, uneven seeding of cells or edge effects in multiwell plates. • 6) Record luminescence (T0) using EnVision Multi Label Reader.
(§6) Note: Uneven luminescent signal within standard plates can be caused by temperature gradients, uneven seeding of cells or edge effects in multiwall plates. • 9) Record luminescence.
(§7) In order to calculate absolute IC50 (EC50), a dose-response curve was fitted using nonlinear regression model with a sigmoidal dose response. The formula for calculating surviving rate is shown below and the absolute IC50 (EC50) was calculated according to the dose-response curve generated by GraphPad Prism 5.0.
(§8) The surviving rate (%)=(LumTest article−LumMedium control)/(LumNon-treated−LumMedium control)×100%.

[2] = test system: HeLa (human cervical cancer); experiment: Cytotoxicity assay (CellTiter-Glo), HeLa; type: cell-based
Description: (§1) Determination of the Half Maximal Inhibition Concentration IC50: • 1.

[3] = test system: K-562 (human chronic myelogenous leukemia); experiment: Cytotoxicity assay (CellTiter-Glo), K-562; type: cell-based; conditions: for IC50: CellTiter-Glo, read-out: Absolute IC50
Description: as §1

[4] = test system: DU 145 (human prostate cancer); experiment: Cytotoxicity assay (CellTiter-Glo), DU 145; type: cell-based; conditions: for IC50: CellTiter-Glo, read-out: Absolute IC50
Description: as §1

[5] = test system: GRANTA-519 (human B Cell lymphoma)
Description: as §3, §4, §5, §6, §7, §8

[6] = target: CDK6/cyclin D3 (Homo sapiens, UniProt Q00534); experiment: Kinase inhibition, CDK6/cyclin D3; type: biochemical; conditions: 10 μM ATP; read-out: Compound IC50 (M), CDK6/cyclin D3
Chain of CDK6/cyclin D3 (Q00534 whole entry): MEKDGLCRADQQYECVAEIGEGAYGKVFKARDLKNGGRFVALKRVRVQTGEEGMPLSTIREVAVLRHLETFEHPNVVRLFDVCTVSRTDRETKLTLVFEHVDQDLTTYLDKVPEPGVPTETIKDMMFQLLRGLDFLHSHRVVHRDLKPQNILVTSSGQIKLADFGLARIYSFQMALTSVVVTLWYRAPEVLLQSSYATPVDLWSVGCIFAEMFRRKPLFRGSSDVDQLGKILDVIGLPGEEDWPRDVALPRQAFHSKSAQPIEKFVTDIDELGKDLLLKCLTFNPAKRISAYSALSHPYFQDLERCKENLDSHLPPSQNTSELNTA
Chain of CDK6/cyclin D3 (P30281 whole entry partner): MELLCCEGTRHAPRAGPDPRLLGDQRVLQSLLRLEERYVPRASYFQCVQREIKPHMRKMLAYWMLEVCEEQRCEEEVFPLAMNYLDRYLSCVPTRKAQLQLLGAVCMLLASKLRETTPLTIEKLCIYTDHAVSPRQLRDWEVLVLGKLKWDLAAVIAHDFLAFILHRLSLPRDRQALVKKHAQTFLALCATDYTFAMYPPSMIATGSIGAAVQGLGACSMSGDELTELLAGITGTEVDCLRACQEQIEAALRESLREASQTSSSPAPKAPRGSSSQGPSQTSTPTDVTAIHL
Experimental: (§2) The compounds in Table 1 were tested for the ability to inhibit the kinase activity of the listed protein kinases.

[7] = target: CDK4/cyclin D1 (Homo sapiens, UniProt P11802); experiment: Kinase inhibition, CDK4/cyclin D1; type: biochemical; conditions: 10 μM ATP; read-out: Compound IC50 (M), CDK4/cyclin D1
Experimental: as §2

[8] = target: T1, FLT3 (Homo sapiens, UniProt P36888); experiment: Kinase inhibition, FLT3; type: biochemical; conditions: 10 μM ATP; values <1 nM estimated from best curve fitting; read-out: Compound IC50 (M), FLT3
T1 sequence (P36888 27-993): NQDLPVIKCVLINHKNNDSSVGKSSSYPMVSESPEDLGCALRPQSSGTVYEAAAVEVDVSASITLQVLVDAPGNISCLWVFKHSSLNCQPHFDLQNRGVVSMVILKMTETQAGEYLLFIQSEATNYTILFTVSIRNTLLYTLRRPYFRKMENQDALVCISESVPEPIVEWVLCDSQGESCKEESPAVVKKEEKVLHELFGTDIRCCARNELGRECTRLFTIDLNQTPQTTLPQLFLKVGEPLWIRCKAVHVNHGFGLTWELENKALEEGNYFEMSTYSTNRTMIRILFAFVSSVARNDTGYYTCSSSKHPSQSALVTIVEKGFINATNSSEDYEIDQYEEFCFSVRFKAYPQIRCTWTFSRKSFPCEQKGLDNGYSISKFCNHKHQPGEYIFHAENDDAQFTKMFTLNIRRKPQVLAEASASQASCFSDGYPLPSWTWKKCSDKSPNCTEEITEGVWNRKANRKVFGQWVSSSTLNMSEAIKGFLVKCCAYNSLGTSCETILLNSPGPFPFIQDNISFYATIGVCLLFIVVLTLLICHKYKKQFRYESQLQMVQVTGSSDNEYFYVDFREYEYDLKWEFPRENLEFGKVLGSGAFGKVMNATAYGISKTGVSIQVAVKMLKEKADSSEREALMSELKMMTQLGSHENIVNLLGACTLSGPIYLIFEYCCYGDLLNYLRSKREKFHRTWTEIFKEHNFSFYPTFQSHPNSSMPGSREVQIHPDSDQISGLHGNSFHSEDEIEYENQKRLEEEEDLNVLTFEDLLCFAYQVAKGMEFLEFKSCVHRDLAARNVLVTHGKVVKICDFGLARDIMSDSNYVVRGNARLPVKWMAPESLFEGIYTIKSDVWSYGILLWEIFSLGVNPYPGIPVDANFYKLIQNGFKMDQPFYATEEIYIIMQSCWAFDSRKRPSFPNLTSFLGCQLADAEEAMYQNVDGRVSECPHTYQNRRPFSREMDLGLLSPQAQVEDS
Experimental: as §2

[9] = target: FYN (Homo sapiens, UniProt P06241); experiment: Kinase inhibition, FYN; type: biochemical; conditions: 10 μM ATP; read-out: Compound IC50 (M), FYN
Chain of FYN (P06241 whole entry): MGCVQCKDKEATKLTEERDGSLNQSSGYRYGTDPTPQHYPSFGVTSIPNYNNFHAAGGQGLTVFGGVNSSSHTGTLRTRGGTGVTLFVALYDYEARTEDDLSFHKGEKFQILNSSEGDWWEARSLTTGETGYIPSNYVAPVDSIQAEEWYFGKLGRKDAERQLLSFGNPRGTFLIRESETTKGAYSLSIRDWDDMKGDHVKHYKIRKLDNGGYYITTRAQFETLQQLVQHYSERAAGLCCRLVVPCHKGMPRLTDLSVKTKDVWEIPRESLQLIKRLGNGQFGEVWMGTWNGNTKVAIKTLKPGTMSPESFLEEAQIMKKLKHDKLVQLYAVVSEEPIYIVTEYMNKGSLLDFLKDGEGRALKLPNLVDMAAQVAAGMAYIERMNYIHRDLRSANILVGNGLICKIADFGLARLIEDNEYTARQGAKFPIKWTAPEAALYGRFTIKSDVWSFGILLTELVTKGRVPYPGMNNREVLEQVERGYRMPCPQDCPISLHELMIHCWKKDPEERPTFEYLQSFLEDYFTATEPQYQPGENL
Experimental: as §2

[10] = target: CDK6/cyclin D1 (Homo sapiens, UniProt Q00534); experiment: Kinase inhibition, CDK6/cyclin D1; type: biochemical; conditions: 10 μM ATP; values <1 nM estimated from best curve fitting; read-out: Compound IC50 (M), CDK6/cyclin D1
Chain of CDK6/cyclin D1 (Q00534 whole entry): as the sequence (Q00534 whole entry) above
Chain of CDK6/cyclin D1 (P24385 whole entry partner): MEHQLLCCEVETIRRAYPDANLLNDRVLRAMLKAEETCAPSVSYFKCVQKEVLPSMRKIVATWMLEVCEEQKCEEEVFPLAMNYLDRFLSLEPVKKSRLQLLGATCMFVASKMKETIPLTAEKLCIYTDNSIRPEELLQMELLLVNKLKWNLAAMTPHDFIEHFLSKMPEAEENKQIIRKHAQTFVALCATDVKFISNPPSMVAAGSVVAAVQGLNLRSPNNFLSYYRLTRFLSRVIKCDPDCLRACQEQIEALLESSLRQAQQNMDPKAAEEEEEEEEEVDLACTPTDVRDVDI
Experimental: as §2

[11] = target: CDK4/cyclin D3 (Homo sapiens, UniProt P11802); experiment: Kinase inhibition, CDK4/cyclin D3; type: biochemical; conditions: 10 μM ATP; read-out: Compound IC50 (M), CDK4/cyclin D3
Experimental: as §2

[12] = target: FLT4/VEGFR3 (Homo sapiens, UniProt P35916); experiment: Kinase inhibition, FLT4/VEGFR3; type: biochemical; conditions: 10 μM ATP; read-out: Compound IC50 (M), FLT4/VEGFR3
Chain of FLT4/VEGFR3 (P35916 25-1363): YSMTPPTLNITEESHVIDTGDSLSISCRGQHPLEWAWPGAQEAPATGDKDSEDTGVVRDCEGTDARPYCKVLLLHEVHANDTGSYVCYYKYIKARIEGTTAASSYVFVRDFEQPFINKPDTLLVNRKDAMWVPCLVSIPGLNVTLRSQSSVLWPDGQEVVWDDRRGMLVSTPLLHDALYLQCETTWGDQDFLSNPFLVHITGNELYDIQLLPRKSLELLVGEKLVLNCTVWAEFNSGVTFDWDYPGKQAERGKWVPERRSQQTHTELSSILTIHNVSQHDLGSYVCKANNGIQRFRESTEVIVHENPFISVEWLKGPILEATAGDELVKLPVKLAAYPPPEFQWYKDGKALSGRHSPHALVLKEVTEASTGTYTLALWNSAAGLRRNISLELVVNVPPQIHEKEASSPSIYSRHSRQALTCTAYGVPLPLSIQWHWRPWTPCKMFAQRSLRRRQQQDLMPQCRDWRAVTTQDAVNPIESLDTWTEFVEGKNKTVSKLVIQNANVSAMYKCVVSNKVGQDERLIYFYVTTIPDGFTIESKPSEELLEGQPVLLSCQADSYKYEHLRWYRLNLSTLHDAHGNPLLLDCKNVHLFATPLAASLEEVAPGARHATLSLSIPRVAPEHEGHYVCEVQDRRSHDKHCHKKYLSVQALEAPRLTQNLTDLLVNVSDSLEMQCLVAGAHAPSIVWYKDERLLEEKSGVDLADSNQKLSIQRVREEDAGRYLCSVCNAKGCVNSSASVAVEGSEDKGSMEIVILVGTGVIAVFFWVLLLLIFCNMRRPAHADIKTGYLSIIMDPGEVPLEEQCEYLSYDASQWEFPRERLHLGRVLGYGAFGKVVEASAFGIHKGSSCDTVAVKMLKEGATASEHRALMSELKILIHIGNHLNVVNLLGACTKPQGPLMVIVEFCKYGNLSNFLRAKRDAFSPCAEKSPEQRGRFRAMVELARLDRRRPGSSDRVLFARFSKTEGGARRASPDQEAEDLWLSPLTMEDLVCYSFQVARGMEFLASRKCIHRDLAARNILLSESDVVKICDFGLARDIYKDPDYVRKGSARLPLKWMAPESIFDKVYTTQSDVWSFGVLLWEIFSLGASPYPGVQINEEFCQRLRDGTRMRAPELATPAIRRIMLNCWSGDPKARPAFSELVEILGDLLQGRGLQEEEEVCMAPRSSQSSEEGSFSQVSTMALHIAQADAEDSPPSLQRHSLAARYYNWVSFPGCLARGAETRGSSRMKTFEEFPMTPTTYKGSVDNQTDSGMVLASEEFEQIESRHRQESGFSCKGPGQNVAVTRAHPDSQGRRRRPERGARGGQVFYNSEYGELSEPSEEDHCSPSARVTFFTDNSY
Experimental: The compounds in Table 1 were tested for the ability to inhibit the kinase activity of the listed protein kinases. […]

[13] = target: T2, ARK5/NUAK1 (Homo sapiens, UniProt O60285); experiment: Kinase inhibition, ARK5/NUAK1; type: biochemical; conditions: 10 μM ATP; values <1 nM estimated from best curve fitting; read-out: Compound IC50 (M), ARK5/NUAK1
T2 sequence (O60285 1-661): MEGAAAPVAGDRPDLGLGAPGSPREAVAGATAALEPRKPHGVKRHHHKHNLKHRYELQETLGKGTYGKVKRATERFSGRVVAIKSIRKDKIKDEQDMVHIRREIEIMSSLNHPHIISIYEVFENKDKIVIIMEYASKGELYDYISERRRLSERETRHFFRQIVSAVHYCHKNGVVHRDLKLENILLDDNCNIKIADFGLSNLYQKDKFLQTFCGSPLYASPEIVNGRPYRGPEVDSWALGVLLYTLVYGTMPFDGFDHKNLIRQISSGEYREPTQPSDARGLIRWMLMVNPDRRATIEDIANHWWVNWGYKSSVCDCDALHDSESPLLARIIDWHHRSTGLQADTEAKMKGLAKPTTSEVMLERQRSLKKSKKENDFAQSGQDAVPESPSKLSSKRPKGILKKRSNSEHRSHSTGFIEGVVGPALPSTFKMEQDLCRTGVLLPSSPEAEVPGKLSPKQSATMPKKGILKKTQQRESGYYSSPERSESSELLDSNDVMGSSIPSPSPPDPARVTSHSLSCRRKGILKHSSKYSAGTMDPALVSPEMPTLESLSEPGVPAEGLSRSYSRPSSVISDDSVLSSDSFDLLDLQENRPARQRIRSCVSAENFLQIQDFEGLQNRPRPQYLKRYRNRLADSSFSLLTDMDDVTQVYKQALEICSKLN
Experimental: as §2

[14] = target: ABL1 (Homo sapiens, UniProt P00519); experiment: Kinase inhibition, ABL1; type: biochemical; conditions: 10 μM ATP; read-out: Compound IC50 (M), ABL1
Experimental: as §2

[15] = target: RET (Homo sapiens, UniProt P07949); experiment: Kinase inhibition, RET; type: biochemical; conditions: 10 μM ATP; read-out: Compound IC50 (M), RET
Chain of RET (P07949 29-1114): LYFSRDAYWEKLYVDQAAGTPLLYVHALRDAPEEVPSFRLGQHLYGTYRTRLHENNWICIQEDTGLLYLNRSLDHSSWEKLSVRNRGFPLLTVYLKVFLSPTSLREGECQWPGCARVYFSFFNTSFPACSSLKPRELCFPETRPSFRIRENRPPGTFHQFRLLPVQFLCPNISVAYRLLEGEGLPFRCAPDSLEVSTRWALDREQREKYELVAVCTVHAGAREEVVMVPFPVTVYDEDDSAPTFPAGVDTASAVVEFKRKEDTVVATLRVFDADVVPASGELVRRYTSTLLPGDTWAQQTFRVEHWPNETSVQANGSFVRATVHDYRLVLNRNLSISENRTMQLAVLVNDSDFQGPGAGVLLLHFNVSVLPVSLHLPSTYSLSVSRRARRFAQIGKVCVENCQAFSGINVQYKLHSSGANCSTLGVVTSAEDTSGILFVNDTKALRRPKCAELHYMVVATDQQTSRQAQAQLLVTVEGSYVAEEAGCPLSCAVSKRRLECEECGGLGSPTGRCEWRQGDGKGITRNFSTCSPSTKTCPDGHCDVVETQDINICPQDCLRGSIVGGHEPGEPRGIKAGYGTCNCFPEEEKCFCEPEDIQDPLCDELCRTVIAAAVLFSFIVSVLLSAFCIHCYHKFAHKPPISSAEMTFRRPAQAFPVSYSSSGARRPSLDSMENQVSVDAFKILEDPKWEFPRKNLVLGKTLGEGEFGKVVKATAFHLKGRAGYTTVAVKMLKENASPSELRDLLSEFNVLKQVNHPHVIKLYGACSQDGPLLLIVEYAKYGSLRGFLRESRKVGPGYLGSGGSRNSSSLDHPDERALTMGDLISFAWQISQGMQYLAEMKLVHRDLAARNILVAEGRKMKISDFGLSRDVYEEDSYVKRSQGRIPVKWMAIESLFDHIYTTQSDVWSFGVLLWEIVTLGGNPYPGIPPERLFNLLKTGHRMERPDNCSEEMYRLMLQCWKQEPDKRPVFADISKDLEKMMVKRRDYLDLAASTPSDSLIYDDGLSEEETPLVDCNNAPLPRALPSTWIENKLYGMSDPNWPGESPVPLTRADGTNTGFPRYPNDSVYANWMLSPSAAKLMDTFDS
Experimental: as §2

[16] = target: PDGFRb (Homo sapiens, UniProt P09619); experiment: Kinase inhibition, PDGFRb; type: biochemical; conditions: 10 μM ATP; read-out: Compound IC50 (M), PDGFRb
Chain of PDGFRb (P09619 33-1106): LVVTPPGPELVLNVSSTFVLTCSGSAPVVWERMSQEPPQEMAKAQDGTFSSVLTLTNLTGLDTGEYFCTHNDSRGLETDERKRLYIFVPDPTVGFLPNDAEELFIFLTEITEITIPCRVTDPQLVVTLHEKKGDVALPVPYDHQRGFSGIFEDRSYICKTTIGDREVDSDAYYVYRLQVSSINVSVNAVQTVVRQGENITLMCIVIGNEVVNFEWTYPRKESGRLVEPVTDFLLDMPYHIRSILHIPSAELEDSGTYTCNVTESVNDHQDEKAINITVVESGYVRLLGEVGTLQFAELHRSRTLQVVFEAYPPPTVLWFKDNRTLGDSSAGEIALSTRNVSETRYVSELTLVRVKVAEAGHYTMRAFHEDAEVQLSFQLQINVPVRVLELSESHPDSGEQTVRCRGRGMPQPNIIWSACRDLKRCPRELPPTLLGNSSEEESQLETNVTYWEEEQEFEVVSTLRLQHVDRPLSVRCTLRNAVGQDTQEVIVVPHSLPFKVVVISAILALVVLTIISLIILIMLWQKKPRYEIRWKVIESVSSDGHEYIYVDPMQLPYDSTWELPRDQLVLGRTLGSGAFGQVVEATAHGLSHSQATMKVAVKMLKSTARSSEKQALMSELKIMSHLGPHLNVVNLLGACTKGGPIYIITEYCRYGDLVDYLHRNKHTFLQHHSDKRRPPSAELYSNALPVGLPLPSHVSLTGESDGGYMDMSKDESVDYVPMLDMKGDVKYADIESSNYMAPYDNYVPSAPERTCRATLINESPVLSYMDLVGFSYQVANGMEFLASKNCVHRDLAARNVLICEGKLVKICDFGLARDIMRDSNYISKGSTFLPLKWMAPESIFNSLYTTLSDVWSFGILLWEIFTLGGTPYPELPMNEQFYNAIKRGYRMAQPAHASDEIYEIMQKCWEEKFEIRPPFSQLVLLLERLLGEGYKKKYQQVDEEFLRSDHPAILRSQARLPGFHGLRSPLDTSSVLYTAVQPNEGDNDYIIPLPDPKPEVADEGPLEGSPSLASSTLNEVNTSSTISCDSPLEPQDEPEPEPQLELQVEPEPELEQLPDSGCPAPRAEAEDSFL
Experimental: as §2

[17] = target: CDK9/cyclin K (Homo sapiens, UniProt P50750); experiment: Kinase inhibition, CDK9/cyclin K; type: biochemical; conditions: 10 μM ATP; read-out: Compound IC50 (M), CDK9/cyclin K
Experimental: as §2

[18] = target: FGFR1 (Homo sapiens, UniProt P11362); experiment: Kinase inhibition, FGFR1; type: biochemical; conditions: 10 μM ATP; read-out: Compound IC50 (M), FGFR1
Experimental: as §2

[19] = target: T3, PKG2/PRKG2 (Homo sapiens, UniProt Q13237); experiment: Kinase inhibition, PKG2/PRKG2; type: biochemical; conditions: 10 μM ATP; read-out: Compound IC50 (M), PKG2/PRKG2
T3 sequence (Q13237 1-762): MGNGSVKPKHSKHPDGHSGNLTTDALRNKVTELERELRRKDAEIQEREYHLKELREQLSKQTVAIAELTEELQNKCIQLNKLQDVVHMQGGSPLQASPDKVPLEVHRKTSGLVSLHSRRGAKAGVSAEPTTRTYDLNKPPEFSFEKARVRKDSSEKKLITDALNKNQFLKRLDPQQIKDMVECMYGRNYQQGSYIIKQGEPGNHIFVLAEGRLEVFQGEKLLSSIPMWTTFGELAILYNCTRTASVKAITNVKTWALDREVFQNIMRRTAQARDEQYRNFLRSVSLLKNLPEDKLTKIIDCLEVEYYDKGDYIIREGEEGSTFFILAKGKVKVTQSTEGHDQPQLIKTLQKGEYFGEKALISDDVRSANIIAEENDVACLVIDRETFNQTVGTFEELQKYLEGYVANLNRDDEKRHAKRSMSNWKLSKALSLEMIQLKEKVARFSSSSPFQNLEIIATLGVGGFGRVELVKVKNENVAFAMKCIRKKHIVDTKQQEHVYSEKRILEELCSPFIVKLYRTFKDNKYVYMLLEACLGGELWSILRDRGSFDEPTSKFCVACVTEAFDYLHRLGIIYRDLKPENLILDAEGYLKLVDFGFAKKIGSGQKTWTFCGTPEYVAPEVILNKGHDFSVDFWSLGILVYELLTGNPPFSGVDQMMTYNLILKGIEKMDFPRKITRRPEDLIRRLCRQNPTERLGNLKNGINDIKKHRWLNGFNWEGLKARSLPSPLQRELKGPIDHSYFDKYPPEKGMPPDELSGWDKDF
Experimental: as §2

N.N.[Cl][Pt][Cl] [Cisplatin, reference compound]
% inhibition at top conc. ([1]; GRANTA-519, 72 h, top working concentration 100 μM): 77.25%
IC50 ([1]; GRANTA-519, 72 h, CellTiter-Glo): 1680 nM
% inhibition at top conc. ([2]; HeLa, 72 h, top working concentration 100 μM): 99.18%
IC50 ([3]; K-562, 72 h): 3760 nM
% inhibition at top conc. ([3]; K-562, 72 h, top working concentration 100 μM): 98.74%
IC50 ([4]; DU 145, 72 h): 960 nM
% inhibition at top conc. ([4]; DU 145, 72 h, top working concentration 100 μM): 95.44%

N#Cc1cc2cnc(Nc3ccc(N4CCNCC4)cc3)nc2n(C2CCCC2)c1=O [ON 1232580, 8-Cyclopentyl-7-oxo-2-(4-piperazin-1-yl-phenylamino)-7,8-dihydro-pyrido[2,3-d]pyrimidine-6-carbonitrile]
Cytotoxicity, result in words [5]: potent killer
IC50 [6]: 2.97e-09 M
IC50 [7]: < 1e-09 M
inhibition at 100 µM ([1]; Homo sapiens, Granta-519, 72 h, read-out: % inhibition at top conc.): 100%
IC50 ([1]; Homo sapiens, Granta-519, 72 h): 400 nM
Cytotoxicity, result in words ([2]; HeLa cells): potent inhibitor
IC50 ([2]; Homo sapiens, HeLa, 72 h, CellTiter-Glo, read-out: Absolute IC50): 1500 nM
inhibition at 100 µM ([2]; Homo sapiens, HeLa, 72 h, top working concentration 100 μM, read-out: % inhibition at top conc.): 100%
IC50 [8]: 4.25e-09 M
IC50 [9]: 3.29e-08 M
IC50 [10]: < 1e-09 M
IC50 [11]: 2.77e-09 M
IC50 [12]: 6.97e-09 M
IC50 [13]: 2.28e-09 M
IC50 [14]: 2.01e-08 M
IC50 ([3]; Homo sapiens, K562, K-562, 72 h): 1190 nM
inhibition at 100 µM ([3]; Homo sapiens, K562, K-562, 72 h, top working concentration 100 μM, read-out: % inhibition at top conc.): 100%
Cytotoxicity, result in words ([3]; K-562 cells): potent inhibitor
IC50 [15]: 8.13e-09 M
IC50 [16]: 6.12e-09 M
IC50 [17]: 8.06e-09 M
IC50 [18]: 3.09e-08 M
IC50 [19]: > 0.0001 M
Cytotoxicity, result in words ([4]; DU 145 cells): potent inhibitor
IC50 ([4]; Homo sapiens, DU 145, 72 h): 930 nM
inhibition at 100 µM ([4]; Homo sapiens, DU 145, 72 h, top working concentration 100 μM, read-out: % inhibition at top conc.): 99.9%

CC(=O)c1c(C)c2cnc(Nc3ccc(N4CCNCC4)cn3)nc2n(C2CCCC2)c1=O [Palbociclib, palbociclib, reference compound]
IC50 [12]: 1.72e-05 M
IC50 [13]: 1.91e-06 M
